The target of test [1] is Histone deacetylase 1 (Homo sapiens, UniProt Q13547). As to the kind of experiment: Inhibition of HDAC1.
Test [2] can be described thus: Selectivity ratio, IC50 for HDAC6 to IC50 for HDAC4.
The target in test [3] is T1, Protein deacetylase HDAC6 (Homo sapiens, UniProt Q9UBN7).
T1 sequence (Q9UBN7 whole entry): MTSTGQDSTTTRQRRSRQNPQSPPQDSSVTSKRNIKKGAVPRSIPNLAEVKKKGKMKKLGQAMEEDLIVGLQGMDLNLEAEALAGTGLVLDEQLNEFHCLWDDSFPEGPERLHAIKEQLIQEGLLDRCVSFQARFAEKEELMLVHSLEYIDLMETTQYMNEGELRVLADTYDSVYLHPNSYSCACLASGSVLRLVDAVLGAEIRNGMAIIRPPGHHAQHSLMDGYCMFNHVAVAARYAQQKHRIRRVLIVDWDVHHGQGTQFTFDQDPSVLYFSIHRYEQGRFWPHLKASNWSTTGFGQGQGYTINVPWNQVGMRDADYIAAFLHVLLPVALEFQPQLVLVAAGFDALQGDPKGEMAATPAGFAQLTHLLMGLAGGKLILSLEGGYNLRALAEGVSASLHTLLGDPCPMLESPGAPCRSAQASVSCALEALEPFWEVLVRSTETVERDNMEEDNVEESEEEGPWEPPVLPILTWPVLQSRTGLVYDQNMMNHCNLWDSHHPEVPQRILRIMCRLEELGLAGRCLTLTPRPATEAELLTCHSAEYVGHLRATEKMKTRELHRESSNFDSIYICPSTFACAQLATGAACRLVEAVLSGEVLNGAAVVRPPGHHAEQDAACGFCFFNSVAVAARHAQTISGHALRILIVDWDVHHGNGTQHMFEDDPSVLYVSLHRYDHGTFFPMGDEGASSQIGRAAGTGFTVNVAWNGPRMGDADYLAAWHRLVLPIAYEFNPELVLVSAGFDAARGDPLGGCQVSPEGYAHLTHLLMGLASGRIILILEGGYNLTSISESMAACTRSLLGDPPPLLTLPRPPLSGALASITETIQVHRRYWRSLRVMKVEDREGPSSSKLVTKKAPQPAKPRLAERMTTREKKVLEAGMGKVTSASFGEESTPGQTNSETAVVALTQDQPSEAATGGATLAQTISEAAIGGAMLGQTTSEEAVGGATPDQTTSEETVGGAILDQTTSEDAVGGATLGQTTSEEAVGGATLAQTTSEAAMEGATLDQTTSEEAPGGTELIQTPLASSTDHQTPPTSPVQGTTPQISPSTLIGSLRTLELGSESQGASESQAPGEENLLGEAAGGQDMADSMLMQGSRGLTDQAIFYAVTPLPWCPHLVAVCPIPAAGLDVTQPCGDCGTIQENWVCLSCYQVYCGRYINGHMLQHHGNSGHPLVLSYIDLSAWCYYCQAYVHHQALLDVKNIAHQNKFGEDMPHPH
As to the kind of experiment: Inhibition of HDAC6.

In test [4] the target is T2, Histone deacetylase 4 (Homo sapiens, UniProt P56524). The experiment in a line: Inhibition of HDAC4.
In test [5] the target is T2, Histone deacetylase 4.

The values that follow come from ChEMBL document CHEMBL1159078, “Bicyclic peptides as potent inhibitors of histone deacetylases: optimization of alkyl loop length” (Bioorg Med Chem Lett, 2010).

Where a SMILES comes first, the peptide text is derived from it. [ ]: non-standard residue; d: D form. The star is where a group is joined. Asu = N[C@@H](CCCCCC(=O)O)C(=O)O; dAhp(2) = CCCCC[C@@H](N)C(=O)O; Ahp(2) = CCCCC[C@H](N)C(=O)O; NHOH = ON*

Chain of Histone deacetylase 1 (Q13547 whole entry): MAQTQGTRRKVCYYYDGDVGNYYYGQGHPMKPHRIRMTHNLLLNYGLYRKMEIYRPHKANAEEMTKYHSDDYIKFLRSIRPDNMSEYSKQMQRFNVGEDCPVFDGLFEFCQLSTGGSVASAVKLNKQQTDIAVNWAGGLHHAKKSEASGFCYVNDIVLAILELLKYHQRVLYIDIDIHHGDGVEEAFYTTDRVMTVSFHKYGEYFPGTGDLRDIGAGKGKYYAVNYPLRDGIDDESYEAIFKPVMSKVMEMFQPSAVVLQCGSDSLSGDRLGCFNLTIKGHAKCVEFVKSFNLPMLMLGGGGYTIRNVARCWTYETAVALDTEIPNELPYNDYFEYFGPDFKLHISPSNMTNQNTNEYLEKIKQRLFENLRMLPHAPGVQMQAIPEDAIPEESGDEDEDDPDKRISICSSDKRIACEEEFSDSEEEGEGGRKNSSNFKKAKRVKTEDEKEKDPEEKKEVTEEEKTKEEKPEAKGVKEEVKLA
T2 sequence (P56524 whole entry): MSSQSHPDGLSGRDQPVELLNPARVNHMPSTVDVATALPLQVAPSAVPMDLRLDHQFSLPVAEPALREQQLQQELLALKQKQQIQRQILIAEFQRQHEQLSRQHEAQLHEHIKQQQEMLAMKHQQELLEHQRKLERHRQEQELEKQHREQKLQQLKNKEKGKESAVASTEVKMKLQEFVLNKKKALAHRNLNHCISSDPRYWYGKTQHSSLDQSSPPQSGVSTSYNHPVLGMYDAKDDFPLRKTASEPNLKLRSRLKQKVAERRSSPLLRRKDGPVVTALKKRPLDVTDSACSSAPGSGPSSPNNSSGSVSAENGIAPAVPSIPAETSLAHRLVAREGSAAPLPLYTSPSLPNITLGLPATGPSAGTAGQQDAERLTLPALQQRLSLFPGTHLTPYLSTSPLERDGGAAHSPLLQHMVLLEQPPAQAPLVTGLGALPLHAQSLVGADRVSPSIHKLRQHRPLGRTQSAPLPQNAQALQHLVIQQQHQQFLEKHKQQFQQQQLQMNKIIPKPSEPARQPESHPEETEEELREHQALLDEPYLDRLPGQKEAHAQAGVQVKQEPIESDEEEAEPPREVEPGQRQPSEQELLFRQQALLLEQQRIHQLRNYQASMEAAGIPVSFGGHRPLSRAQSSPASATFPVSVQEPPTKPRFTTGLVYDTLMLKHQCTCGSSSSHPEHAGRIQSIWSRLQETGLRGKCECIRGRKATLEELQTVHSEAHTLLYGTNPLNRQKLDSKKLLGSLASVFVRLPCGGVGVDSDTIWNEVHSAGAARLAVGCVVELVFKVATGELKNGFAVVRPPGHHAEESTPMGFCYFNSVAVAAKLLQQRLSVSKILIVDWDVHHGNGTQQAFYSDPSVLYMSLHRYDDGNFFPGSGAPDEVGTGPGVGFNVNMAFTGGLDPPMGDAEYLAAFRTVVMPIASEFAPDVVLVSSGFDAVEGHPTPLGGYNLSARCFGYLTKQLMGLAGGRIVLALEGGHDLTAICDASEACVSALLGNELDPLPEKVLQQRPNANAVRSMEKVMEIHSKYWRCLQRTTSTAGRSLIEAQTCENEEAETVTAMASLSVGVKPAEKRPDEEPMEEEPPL

Turning to `O=C(CCCCC[C@@H]1NC(=O)[C@H]2CCCN2C(=O)[C@@H]2CCCCCCCCCC[C@@H](NC1=O)C(=O)N2)NO`, the IC50 – broadly, the concentration that gives 50% inhibition – in test [1] was 9.1 nM; in test [3], 410 nM; in test [4], 5.5 nM. Further, the Ratio IC50 in test [2] is 75. The compound also gave an EC1000 in test [5] of 7.2 nM.
Regarding `O=C(CCCCC[C@@H]1NC(=O)[C@H]2CCCN2C(=O)[C@@H]2CCCCCCCCC[C@@H](NC1=O)C(=O)N2)NO`, the IC50 stood at 9.1 nM in test [1], 330 nM in test [3] and 5.4 nM in test [4]. Besides, the EC1000 in test [5] was found to be 92 nM.
The corresponding values for `CCCCC[C@@H]1NC(=O)[C@@H](CCCCC)NC(=O)[C@H](CCCCCC(=O)NO)NC(=O)[C@H]2CCCN2C1=O` (cyclo([Ahp(2)][dP][Asu](NHOH)[dAhp(2)])) are 25 nM, 340 nM, 12 nM and 13 nM.
In the same order, the values of `O=C(CCCCC[C@@H]1NC(=O)[C@H]2CCCN2C(=O)[C@@H]2CCCCCCCCCCCC[C@@H](NC1=O)C(=O)N2)NO` are 13 nM, 240 nM, 5 nM and 2 nM.
`CC(/C=C/C(=O)NO)=C\[C@@H](C)C(=O)c1ccc(N(C)C)cc1` displayed an EC1000 in test [5] of 20 nM.
For `O=C(CCCCC[C@@H]1NC(=O)[C@H]2CCCN2C(=O)[C@@H]2CCCCCCCCCCC[C@@H](NC1=O)C(=O)N2)NO`, the IC50 was 11 nM in test [1], 280 nM in test [3] and 4.5 nM in test [4]. In test [5], this compound displayed an EC1000 of 2.6 nM.
